Patent US20100311714A1, “1H-IMIDAZO[4,5-c]QUINOLINONE COMPOUNDS” (priority 2009, published 2010)
In brackets after ≈: the same amount, converted by molar mass.

Key:
[1] = High-throughput equilibrium solubility at pH 6.8; format: physicochemical; details: pH 6.8, aqueous buffer, thermodynamic from solid; read-out: HT-Eq Sol/pH 6.8
How it was run: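 Solubility was measured at pH 6.8 following the cited Zhou et al. (2007) procedure.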

PI3K delta = molecular target: T1, PI3K delta (Homo sapiens, UniProt O00329); assay: PI3K delta kinase assay (Kinase-Glo luminescence); format: biochemical; details: read-out: EPK_PI3Kdelta/IC50
T1 construct: for the full-length p110-d subunit are generated and fused by overlapping PCR; His tag (C); made in house; host or cells: baculovirus BV1060; Tn5 (Trichoplusia ni) or TiniPro insect cells
How it was run: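 Kinase-Glo ATP-depletion luminescence using 10 nM p85(iSH2)-linker-p110δ full-length His-tag construct from insect cells, with 1 μM ATP and 10 μg/mL phosphatidylinositol in 10 mM Tris pH 7.5, 3 mM MgCl2, 50 mM NaCl, 0.05% CHAPS, 1 mM DTT. 60 min room temperature; IC50 from 4-parameter logistic fit over 8 concentrations.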

T1 sequence (O00329 with tags, fused parts or gaps limits assumed): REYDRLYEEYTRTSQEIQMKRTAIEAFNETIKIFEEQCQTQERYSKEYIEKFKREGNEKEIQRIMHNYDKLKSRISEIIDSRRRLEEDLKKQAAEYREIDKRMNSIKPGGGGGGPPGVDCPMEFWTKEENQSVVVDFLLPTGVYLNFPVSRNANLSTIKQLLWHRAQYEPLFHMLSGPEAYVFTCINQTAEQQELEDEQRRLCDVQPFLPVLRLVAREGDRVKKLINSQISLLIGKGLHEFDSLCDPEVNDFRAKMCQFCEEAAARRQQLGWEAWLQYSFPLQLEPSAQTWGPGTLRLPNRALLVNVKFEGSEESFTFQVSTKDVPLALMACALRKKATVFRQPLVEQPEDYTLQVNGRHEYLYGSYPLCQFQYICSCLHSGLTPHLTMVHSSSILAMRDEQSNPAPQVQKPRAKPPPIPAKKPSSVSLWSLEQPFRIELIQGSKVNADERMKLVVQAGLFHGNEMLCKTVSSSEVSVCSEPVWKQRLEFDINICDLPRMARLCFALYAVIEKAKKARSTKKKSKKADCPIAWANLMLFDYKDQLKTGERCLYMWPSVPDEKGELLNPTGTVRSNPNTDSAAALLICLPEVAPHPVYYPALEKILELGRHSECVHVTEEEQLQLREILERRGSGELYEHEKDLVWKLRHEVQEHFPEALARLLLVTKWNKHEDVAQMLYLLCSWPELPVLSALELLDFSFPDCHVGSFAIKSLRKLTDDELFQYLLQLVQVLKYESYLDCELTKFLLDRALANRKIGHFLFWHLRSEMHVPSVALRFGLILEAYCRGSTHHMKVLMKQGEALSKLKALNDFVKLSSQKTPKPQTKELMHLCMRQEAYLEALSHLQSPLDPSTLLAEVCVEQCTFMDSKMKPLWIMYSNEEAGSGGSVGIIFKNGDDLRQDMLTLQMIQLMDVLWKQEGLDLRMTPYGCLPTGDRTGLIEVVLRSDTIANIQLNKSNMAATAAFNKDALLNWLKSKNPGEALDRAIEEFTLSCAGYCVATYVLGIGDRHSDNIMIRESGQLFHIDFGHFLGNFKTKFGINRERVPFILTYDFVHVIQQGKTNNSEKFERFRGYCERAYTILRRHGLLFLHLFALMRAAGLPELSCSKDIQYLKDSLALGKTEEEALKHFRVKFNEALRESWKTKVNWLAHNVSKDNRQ

| SMILES | solubility thermodynamic [1] [µg/mL] | IC50 (PI3K delta) [nM] |
| --- | --- | --- |
| CCOc1ccc(-c2ccc3ncc4c(c3c2)n(-c2ccc(C)nc2C)c(=O)n4C)cn1 [Example 14.2, 1-(2,6-Dimethyl-pyridin-3-yl)-8-(6-ethoxy-pyridin-3-yl)-3-methyl-1,3-dihydro-imidazo[4,5-c]quinolin-2-one] | 4 (≈ 9.4 µM) | 30 |
| CCOCc1cc(-c2ccc3ncc4c(c3c2)n(-c2ccc(F)nc2C)c(=O)n4C)cnc1N [Example 7.15, 8-(6-Amino-5-ethoxymethyl-pyridin-3-yl)-1-(6-fluoro-2-methyl-pyridin-3-yl)-3-methyl-1,3-dihydro-imidazo[4,5-c]quinolin-2-one] | 67.5 (≈ 147 µM) | 37 |
| CCNc1cc(-c2ccc3ncc4c(c3c2)n(-c2ccc(C)nc2C)c(=O)n4C)cnc1C [Example 14.6, 1-(2,6-Dimethyl-pyridin-3-yl)-8-(5-ethylamino-6-methyl-pyridin-3-yl)-3-methyl-1,3-dihydro-imidazo[4,5-c]quinolin-2-one] | 175 (≈ 399 µM) | 20 |
| CNc1ncc(-c2ccc3ncc4c(c3c2)n(-c2cnc(F)cc2C)c(=O)n4C)cn1 [Example 16.3, 1-(6-Fluoro-4-methyl-pyridin-3-yl)-3-methyl-8-(2-methylamino-pyrimidin-5-yl)-1,3-dihydro-imidazo[4,5-c]quinolin-2-one] | 27 (≈ 65 µM) | 113 |
| CNC(=O)c1cc(-c2ccc3ncc4c(c3c2)n(-c2ccc(F)nc2C)c(=O)n4C)cnc1N [Example 7.14, 2-Amino-5-[1-(6-fluoro-2-methyl-pyridin-3-yl)-3-methyl-2-oxo-2,3-dihydro-1H-imidazo[4,5-c]quinolin-8-yl]-N-methyl-nicotinamide] | 3 (≈ 6.56 µM) | 5 |
| COCCN(C)c1ccc(-n2c(=O)n(C)c3cnc4ccc(-c5cnc6c(ccn6C)c5)cc4c32)c(C)n1 [Example 15.7, 1-{6-[(2-Methoxy-ethyl)-methyl-amino]-2-methyl-pyridin-3-yl}-3-methyl-8-(1-methyl-1H-pyrrolo[2,3-b]pyridin-5-yl)-1,3-dihydro-imidazo[4,5-c]quinolin-2-one] | 4 (≈ 7.88 µM) | 21 |
| COc1cc(-c2ccc3ncc4c(c3c2)n(-c2ccc(N(C)C)nc2C)c(=O)n4C)cnc1CO [Example 19.4, 1-(6-Dimethylamino-2-methyl-pyridin-3-yl)-8-(6-hydroxymethyl-5-methoxy-pyridin-3-yl)-3-methyl-1,3-dihydro-imidazo[4,5-c]quinolin-2-one] | 110 (≈ 234 µM) | 24 |
| CNc1ncc(-c2ccc3ncc4c(c3c2)n(-c2ccc(C)nc2C)c(=O)n4C)cn1 [Example 14.4, 1-(2,6-Dimethyl-pyridin-3-yl)-3-methyl-8-(2-methylamino-pyrimidin-5-yl)-1,3-dihydro-imidazo[4,5-c]quinolin-2-one] | 8 (≈ 19.4 µM) | 44 |
| COc1ccc(-n2c(=O)n(C)c3cnc4ccc(-c5cnc(N(C)C)nc5)cc4c32)c(Cl)n1 [Example 18.3, 1-(2-Chloro-6-methoxy-pyridin-3-yl)-8-(2-dimethylamino-pyrimidin-5-yl)-3-methyl-1,3-dihydro-imidazo[4,5-c]quinolin-2-one] | 37 (≈ 80.1 µM) | 4 |
| CNc1ncc(-c2ccc3ncc4c(c3c2)n(-c2ccc(N(C)C)nc2C)c(=O)n4C)cn1 [Example 19.1, 1-(6-Dimethylamino-2-methyl-pyridin-3-yl)-3-methyl-8-(2-methylamino-pyrimidin-5-yl)-1,3-dihydro-imidazo[4,5-c]quinolin-2-one] | 7 (≈ 15.9 µM) | 12 |
| Cc1cc(F)ncc1-n1c(=O)n(C)c2cnc3ccc(-c4cnc5c(ccn5C)c4)cc3c21 [Example 16.5, 1-(6-Fluoro-4-methyl-pyridin-3-yl)-3-methyl-8-(1-methyl-1H-pyrrolo[2,3-b]pyridin-5-yl)-1,3-dihydro-imidazo[4,5-c]quinolin-2-one] | 2 (≈ 4.56 µM) | 39 |
| COc1ccc(-n2c(=O)n(C)c3cnc4ccc(-c5ccc6nccn6c5)cc4c32)c(OC)n1 [Example 8.10, 1-(2,6-Dimethoxy-pyridin-3-yl)-8-imidazo[1,2-a]pyridin-6-yl-3-methyl-1,3-dihydro-imidazo[4,5-c]quinolin-2-one] | 47 (≈ 104 µM) | 192 |
| CCNc1cc(-c2ccc3ncc4c(c3c2)n(-c2ccc(N(C)CC)nc2C)c(=O)n4C)cnc1C [Example 12.2, 8-(5-Ethylamino-6-methyl-pyridin-3-yl)-1-[6-(ethyl-methyl-amino)-2-methyl-pyridin-3-yl]-3-methyl-1,3-dihydro-imidazo[4,5-c]quinolin-2-one] | 5 (≈ 10.4 µM) | 13 |
